As a reminder, the EC50 is the concentration giving half of the maximal effect. A high value points to a less potent agent.

Data on 17 compounds can be found in patent US9346852B2, “Substituted adipic acid amides and uses thereof” (Bristol-Myers Scuibb Company, priority 2011, dated 2016).

This experiment concerns the target T1, human Y4 stable CHO clonal cells (Homo sapiens, UniProt P50391).
T1 construct: expressed in transfected cells
Kind of experiment: NPY4 cAMP HTRF Agonist Assay. To be noted: inhibitory cAMP assay, Gi activation by Y4 agonism, forskolin and IBMX, 30 minutes at room temperature. The class given is cell-based. How it is done: NPY4 cAMP HTRF Agonist Assay
The functionality of the compound at Y4 receptor was analyzed using an inhibitory cAMP assay (CISBIO, HTRF cAMP kit #62AM4PEC) to measure the Gi activation by Y4 agonism.
The human Y4 stable CHO clonal cells were maintained in culture medium (F-12 containing 10% Fetal Bovine Serum, […] GENETICIN®, […] Zeocin). Before the experiment, 5 μL of 1 uM Forskolin (Sigma, # F6886) and 100 uM IBMX (Sigma, # I5879) in PBS buffer were added into 384-well plates (PE, Proxi-plate) that were pre-dotted with […] compounds. The cells were removed from the flasks by Cellstripper, counted and adjusted to […] in PBS buffer, and added 5 μL/well (5000 cells/well) into the above 384-well plates. The cells were then covered and incubated for 30 minutes at room temperature. After incubation, 5 μL/well of D2-conjugate in HTRF lysis buffer was first added, followed by adding 5 μL/well of anti-cAMP Cryptate in HTRF lysis buffer. The plates were incubated for another 1 hour at room temperature and read on the EnVision Multilabel Plate Reader.
Compounds described herein were tested in the above assay.
(In general: Time-resolved FRET reads energy transfer from a long-lived donor to a nearby acceptor.)

T1 sequence (P50391 whole entry): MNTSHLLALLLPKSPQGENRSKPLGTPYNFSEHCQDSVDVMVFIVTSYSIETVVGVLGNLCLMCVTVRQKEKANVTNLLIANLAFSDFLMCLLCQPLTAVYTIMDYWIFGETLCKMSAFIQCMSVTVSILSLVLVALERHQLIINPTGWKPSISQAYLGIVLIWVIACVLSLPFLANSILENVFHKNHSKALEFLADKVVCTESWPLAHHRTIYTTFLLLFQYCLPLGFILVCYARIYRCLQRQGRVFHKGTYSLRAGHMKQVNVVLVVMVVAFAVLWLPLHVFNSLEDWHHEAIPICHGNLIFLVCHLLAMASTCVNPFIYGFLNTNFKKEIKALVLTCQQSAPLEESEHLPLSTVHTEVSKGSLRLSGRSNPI

With `COC(=O)[C@@H]1CCC[C@@H]2SCC[C@H](NC(=O)[C@H](CC[C@H](Cc3ccccc3)C(=O)N[C@H]3CCS[C@H]4CCC[C@@H](C(=O)OC)N4C3=O)Cc3ccccc3)C(=O)N21` [Example 1, Dimethyl (4S,7S,10aS,4′S,7′S,10a′S)-4,4′-(((2R,5R)-2,5-dibenzyl-1,6-dioxo-1,6-hexanediyl)diimino)bis(5-oxooctahydro-7H-pyrido[2,1-b][1,3]thiazepine-7-carboxylate)], the midpoint of the response, the EC50, lay at 17 nM. The result for `COC(=O)[C@@H]1CCC[C@@H]2SCC[C@H](NC(=O)[C@H](CC[C@H](CC(C)C)C(=O)N[C@H]3CCS[C@H]4CCC[C@@H](C(=O)OC)N4C3=O)Cc3ccccc3)C(=O)N21` [Example 4] reads 130 nM; that for `COC(=O)[C@@H]1CCC[C@@H]2CCC[C@H](NC(=O)[C@H](CC[C@H](Cc3ccccc3)C(=O)N[C@H]3CCC[C@H]4CCC[C@@H](C(=O)OC)N4C3=O)Cc3ccccc3)C(=O)N21` [Example 5, Dimethyl (4S,7S,10aS,4′S,7′S,10a′S)-7,7′-(((2R,5R)-2,5-dibenzyl-1,6-dioxo-1,6-hexanediyl)diimino)bis(6-oxodecahydropyrido[1,2-a]azepine-4-carboxylate)], 200 nM; that for `COC(=O)[C@@H]1CCC[C@@H]2SCC[C@H](NC(=O)[C@H](CC[C@H](Cc3ccc(O)cc3)C(=O)N[C@H]3CCS[C@H]4CCC[C@@H](C(=O)OC)N4C3=O)Cc3ccc(O)cc3)C(=O)N21` [Example 9, Dimethyl (4S,7S,10aS,4′S,7′S,10a′S)-4,4′-(((2R,5R)-2,5-bis(4-hydroxybenzyl)-1,6-dioxo-1,6-hexanediyl)diimino)bis(5-oxooctahydro-7H-pyrido[2,1-b][1,3]thiazepine-7-carboxylate)], 14 nM. The result for `COC(=O)[C@@H]1CCC[C@@H]2SCC[C@H](NC(=O)[C@H](CC[C@H](Cc3ccccc3)C(=O)N[C@@H]3C(=O)N4CCC[C@@H]4SC3(C)C)Cc3ccccc3)C(=O)N21` [Example 12, (4S,7S,10aS)-Methyl 4-((2R,5R)-2,5-dibenzyl-6-((3R,8aS)-2,2-dimethyl-4-oxohexahydro-2H-pyrrolo[2,1-b][1,3]thiazin-3-ylamino)-6-oxohexanamido)-5-oxooctahydro-2H-pyrido[2,1-b][1,3]thiazepine-7-carboxylate] reads 60 nM; that for `COC(=O)[C@@H]1CCCN2CCC[C@H](NC(=O)[C@H](CC[C@H](Cc3ccccc3)C(=O)N[C@H]3CCCN4CCC[C@@H](C(=O)OC)N4C3=O)Cc3ccccc3)C(=O)N12` [Example 18, Dimethyl (1S,9S,1′S,9′S)-9,9′-(((2R,5R)-2,5-dibenzyl-1,6-dioxo-1,6-hexanediyl)diimino)bis(10-oxooctahydro-6H-pyridazino[1,2-a][1,2]diazepine-1-carboxylate)], 155 nM.

In turn, `COC(=O)[C@@H]1CCC[C@@H]2SCC[C@H](NC(=O)[C@H](CC[C@H](Cc3ccccc3)C(=O)N[C@H]3CCS[C@H]4CCCCN4C3=O)Cc3ccccc3)C(=O)N21` [Example 30, (4S,7S,10aS)-Methyl 4-((2R,5R)-2,5-dibenzyl-6-oxo-6-((4S,10aS)-5-oxooctahydro-2H-pyrido[2,1-b][1,3]thiazepin-4-ylamino)hexanamido)-5-oxooctahydro-2H-pyrido[2,1-b][1,3]thiazepine-7-carboxylate] came in with an EC50 of 230 nM. On to `COC(=O)[C@@H]1CCC[C@@H]2SCC[C@H](NC(=O)[C@H](CC[C@H](CC#N)C(=O)N[C@H]3CCS[C@H]4CCC[C@@H](C(=O)OC)N4C3=O)Cc3ccccc3)C(=O)N21` [Example 32, Dimethyl (4S,7S,10aS,4′S,7′S,10a′S)-4,4′-(((2R,5R)-2-benzyl-5-(cyanomethyl)-1,6-dioxo-1,6-hexanediyl)diimino)bis(5-oxooctahydro-7H-pyrido[2,1-b][1,3]thiazepine-7-carboxylate)], for which the EC50 turned out to be 24 nM. This EC50 is about 9.6-fold lower than that of the compound before. As for `COC(=O)[C@@H]1CCC[C@@H]2SCC[C@H](NC(=O)[C@H](CC[C@H](Cc3ccc(O)cc3)C(=O)N[C@H]3CCS[C@H]4CCC[C@@H](C(=O)OC)N4C3=O)Cc3ccccc3)C(=O)N21` [Example 38, Dimethyl (4S,7S,10aS,4′S,7′S,10a′S)-4,4′-(((2R,5R)-2-benzyl-5-(4-hydroxybenzyl)-1,6-dioxo-1,6-hexanediyl)diimino)bis(5-oxooctahydro-7H-pyrido[2,1-b][1,3]thiazepine-7-carboxylate)], the figure is 5 nM; as for `COC(=O)[C@@H]1CCC[C@@H]2SCC[C@H](NC(=O)[C@H](CC[C@H](CC3CCCCC3)C(=O)N[C@H]3CCS[C@H]4CCC[C@@H](C(=O)OC)N4C3=O)Cc3cccc(Cl)c3)C(=O)N21` [Example 43, Dimethyl (4S,7S,10aS,4′S,7′S,10a′S)-4,4′-(((2R,5R)-2-(3-chlorobenzyl)-5-(cyclohexylmethyl)-1,6-dioxo-1,6-hexanediyl)diimino)bis(5-oxooctahydro-7H-pyrido[2,1-b][1,3]thiazepine-7-carboxylate)], 835 nM. The compound `O=C(N[C@H]1CCCCN(c2ccccc2)C1=O)[C@H](CC[C@H](Cc1ccccc1)C(=O)N[C@H]1CCS[C@H]2CCCCN2C1=O)Cc1ccccc1` [Example 59, (2R,5R)-2,5-Dibenzyl-N1-((S)-2-oxo-1-phenylazepan-3-yl)-N6-((4S,10aS)-5-oxooctahydro-2H-pyrido[2,1-b][1,3]thiazepin-4-yl)hexanediamide] returned an EC50 of 270 nM. On to `N#C[C@@H]1CCC[C@@H]2SCC[C@H](NC(=O)[C@H](CC[C@H](Cc3ccccc3)C(=O)N[C@H]3CCCCN(c4ccccc4)C3=O)Cc3ccccc3)C(=O)N12` [Example 72, (2R,5R)-2,5-Dibenzyl-N1-((4S,7S,10aS)-7-cyano-5-oxooctahydro-2H-pyrido[2,1-b][1,3]thiazepin-4-yl)-N6-((S)-2-oxo-1-phenylazepan-3-yl)hexanediamide], for which the EC50 was determined as 55 nM. The result for `COC[C@@H]1CCC[C@@H]2SCC[C@H](NC(=O)[C@H](CC[C@H](Cc3ccccc3)C(=O)N[C@H]3CCCCN(c4ccccc4)C3=O)Cc3ccccc3)C(=O)N12` [Example 74, (2R,5R)-2,5-Dibenzyl-N1-((4S,7S,10aS)-7-(methoxymethyl)-5-oxooctahydro-2H-pyrido[2,1-b][1,3]thiazepin-4-yl)-N6-((S)-2-oxo-1-phenylazepan-3-yl)hexanediamide] reads 470 nM; that for `COc1ccccc1N1CCCC[C@H](NC(=O)[C@H](CC[C@H](Cc2ccccc2)C(=O)N[C@H]2CCS[C@H]3CCC[C@@H](C(F)(F)F)N3C2=O)Cc2ccccc2)C1=O` [Example 79, (2R,5R)-2,5-Dibenzyl-N1-((S)-1-(2-methoxyphenyl)-2-oxoazepan-3-yl)-N6-((4S,7S,10aS)-5-oxo-7-(trifluoromethyl)octahydro-2H-pyrido[2,1-b][1,3]thiazepin-4-yl)hexanediamide], 18 nM. Consider `Cc1ccccc1N1CCCC[C@H](NC(=O)[C@H](CC[C@H](Cc2ccccc2)C(=O)N[C@H]2CCS[C@H]3CC[C@@H](C(F)(F)F)CN3C2=O)Cc2ccccc2)C1=O` [Example 90, (2R,5R)-2,5-Dibenzyl-N1-((S)-2-oxo-1-o-tolylazepan-3-yl)-N6-((4S,8R,10aS)-5-oxo-8-(trifluoromethyl)octahydro-2H-pyrido[2,1-b][1,3]thiazepin-4-yl)hexanediamide], for which the EC50 stood at 270 nM.

As for `COc1ccccc1N1CCCC[C@H](NC(=O)[C@H](CC[C@H](Cc2ccccc2)C(=O)N[C@H]2CCS[C@H]3CCC[C@@H](C#N)N3C2=O)Cc2ccccc2)C1=O` [Example 96, (2R,5R)-2,5-Dibenzyl-N1-((4S,7S,10aS)-7-cyano-5-oxooctahydro-2H-pyrido[2,1-b][1,3]thiazepin-4-yl)-N6-((S)-1-(2-methoxyphenyl)-2-oxoazepan-3-yl)hexanediamide], the response was half-maximal at 7 nM (EC50). This EC50 is about 39-fold lower than that of the compound before. The result for `CCC[C@@H](CC[C@H](Cc1cccc(F)c1)C(=O)N[C@H]1CCS[C@H]2CCC[C@@H](C(=O)OC)N2C1=O)C(=O)N[C@H]1CCS[C@H]2CCC[C@@H](C(=O)OC)N2C1=O` [Example 100] reads 210 nM.
